ChEMBL document CHEMBL1145073, “DNA binding ligands targeting drug-resistant bacteria: structure, activity, and pharmacology” (J Med Chem, 2003)
≈ marks a conversion by molar mass, not a printed value.

Tested on: Staphylococcus aureus
Assay: In vitro antimicrobial activity against methicillin resistant Staphylococcus aureus 27660
Type: functional

SMILES	MIC [µg/mL]
Cn1cc(NC(=O)c2cc(NC(=O)c3cc(-c4ccncc4)cn3C)cn2C)cc1C(=O)NCCN1CCOCC1	> 32
Cn1cc(NC(=O)c2cc(NC(=O)c3cc(NC(=O)c4cc5ccccc5cn4)cn3C)cn2C)cc1C(=O)NCCN1CCC(F)CC1	0.25 (≈ 0.374 µM)
Cn1cc(NC(=O)c2cc(NC(=O)c3cc(-c4cccc(F)c4)cn3C)cn2C)cc1C(=O)NCCN1CCOCC1	32 (≈ 55.6 µM)
Cn1cc(NC(=O)c2cc(NC(=O)c3cc(-c4ccc5nsnc5c4)cn3C)cn2C)cc1C(=O)NCCN1CCOCC1	8 (≈ 13 µM)
Cn1cc(NC(=O)c2cc(NC(=O)c3cc(-c4sccc4C#N)cn3C)cn2C)cc1C(=O)NCCN1CCOCC1	4 (≈ 6.79 µM)
CSc1ccsc1-c1cc(C(=O)Nc2cc(C(=O)Nc3cc(C(=O)NCCN4CCOCC4)n(C)c3)n(C)c2)n(C)c1	4 (≈ 6.56 µM)
Cc1cccnc1-c1cc(C(=O)Nc2cc(C(=O)Nc3cc(C(=O)NCCN4CCOCC4)n(C)c3)n(C)c2)n(C)c1	18 (≈ 31.4 µM)
Cn1cc(NC(=O)c2cc(NC(=O)c3cc(NC(=O)c4cc5ccccc5cn4)cn3C)cn2C)cc1C(=O)NCCCN1CCOCC1	2 (≈ 3 µM)
Cn1cc(NC(=O)c2cc(NC(=O)c3cc(-c4cc(Cl)c(Cl)s4)cn3C)cn2C)cc1C(=O)NCCN1CCOCC1	8 (≈ 12.6 µM)
Cn1cc(NC(=O)c2cc(NC(=O)c3cc(-c4csnn4)cn3C)cn2C)cc1C(=O)NCCN1CCOCC1	32 (≈ 56.6 µM)
CN(C)CC(C)(C)CNC(=O)c1cc(NC(=O)c2cc(NC(=O)c3cc(NC(=O)c4cc5ccccc5cn4)cn3C)cn2C)cn1C	1 (≈ 1.53 µM)
CC(C)S(=O)(=O)c1csc(-c2cc(C(=O)Nc3cc(C(=O)Nc4cc(C(=O)NCCN5CCOCC5)n(C)c4)n(C)c3)n(C)c2)c1Cl	4 (≈ 5.68 µM)
Cn1cc(NC(=O)c2cc(NC(=O)c3cc(-c4cc5ccccc5[nH]4)cn3C)cn2C)cc1C(=O)NCCN1CCOCC1	8 (≈ 13.4 µM)
CN1CCN(NC(=O)c2cc(NC(=O)c3cc(NC(=O)c4cc(NC(=O)c5cc6ccccc6cn5)cn4C)cn3C)cn2C)CC1	16 (≈ 25.1 µM)

Tested on: not listed separately
Assay: In vitro antimicrobial activity against penicillin-intermediate Streptococcus pneumoniae 49619
Type: functional

SMILES	MIC [µg/mL]
Cn1cc(NC(=O)c2cc(NC(=O)c3cc(NC(=O)c4sc5cc(C(F)(F)F)ccc5c4Cl)cn3C)cn2C)cc1C(=O)NCCN1CCOCC1	4 (≈ 5.27 µM)
Cn1cc(NC(=O)c2cc(NC(=O)c3cc(-c4ccncc4)cn3C)cn2C)cc1C(=O)NCCN1CCOCC1	2 (≈ 3.58 µM)
Cn1cc(NC(=O)c2cc(NC(=O)c3cc(NC(=O)c4cc5ccccc5cn4)cn3C)cn2C)cc1C(=O)NCCN1CCC(F)CC1	0.031 (≈ 0.0464 µM)
Cn1cc(NC(=O)c2cc(NC(=O)c3cc(-c4cccc(F)c4)cn3C)cn2C)cc1C(=O)NCCN1CCOCC1	16 (≈ 27.8 µM)
Cn1cc(NC(=O)c2cc(NC(=O)c3cc(-c4ccc5nsnc5c4)cn3C)cn2C)cc1C(=O)NCCN1CCOCC1	0.5 (≈ 0.812 µM)
Cn1cc(NC(=O)c2cc(NC(=O)c3cc(-c4sccc4C#N)cn3C)cn2C)cc1C(=O)NCCN1CCOCC1	0.5 (≈ 0.849 µM)
CSc1ccsc1-c1cc(C(=O)Nc2cc(C(=O)Nc3cc(C(=O)NCCN4CCOCC4)n(C)c3)n(C)c2)n(C)c1	0.125 (≈ 0.205 µM)
Cc1cccnc1-c1cc(C(=O)Nc2cc(C(=O)Nc3cc(C(=O)NCCN4CCOCC4)n(C)c3)n(C)c2)n(C)c1	1 (≈ 1.75 µM)
Cn1cc(NC(=O)c2cc(NC(=O)c3cc(NC(=O)c4cc5ccccc5cn4)cn3C)cn2C)cc1C(=O)NCCCN1CCOCC1	2 (≈ 3 µM)
Cn1cc(NC(=O)c2cc(NC(=O)c3cc(-c4cc(Cl)c(Cl)s4)cn3C)cn2C)cc1C(=O)NCCN1CCOCC1	4 (≈ 6.32 µM)
Cn1cc(NC(=O)c2cc(NC(=O)c3cc(-c4csnn4)cn3C)cn2C)cc1C(=O)NCCN1CCOCC1	1 (≈ 1.77 µM)
CN(C)CC(C)(C)CNC(=O)c1cc(NC(=O)c2cc(NC(=O)c3cc(NC(=O)c4cc5ccccc5cn4)cn3C)cn2C)cn1C	1 (≈ 1.53 µM)
CC(C)S(=O)(=O)c1csc(-c2cc(C(=O)Nc3cc(C(=O)Nc4cc(C(=O)NCCN5CCOCC5)n(C)c4)n(C)c3)n(C)c2)c1Cl	1 (≈ 1.42 µM)
Cn1cc(NC(=O)c2cc(NC(=O)c3cc(-c4cc5ccccc5[nH]4)cn3C)cn2C)cc1C(=O)NCCN1CCOCC1	2 (≈ 3.35 µM)
CN1CCN(NC(=O)c2cc(NC(=O)c3cc(NC(=O)c4cc(NC(=O)c5cc6ccccc6cn5)cn4C)cn3C)cn2C)CC1	16 (≈ 25.1 µM)

Tested on: Enterococcus faecalis
Assay: In vitro antimicrobial activity against vancomycin-susceptible Enterococcus faecalis 29212
Type: functional

SMILES	MIC [µg/mL]
Cn1cc(NC(=O)c2cc(NC(=O)c3cc(NC(=O)c4sc5cc(C(F)(F)F)ccc5c4Cl)cn3C)cn2C)cc1C(=O)NCCN1CCOCC1	8 (≈ 10.5 µM)
Cn1cc(NC(=O)c2cc(NC(=O)c3cc(-c4ccncc4)cn3C)cn2C)cc1C(=O)NCCN1CCOCC1	32 (≈ 57.3 µM)
Cn1cc(NC(=O)c2cc(NC(=O)c3cc(NC(=O)c4cc5ccccc5cn4)cn3C)cn2C)cc1C(=O)NCCN1CCC(F)CC1	0.125 (≈ 0.188 µM)
Cn1cc(NC(=O)c2cc(NC(=O)c3cc(-c4cccc(F)c4)cn3C)cn2C)cc1C(=O)NCCN1CCOCC1	32 (≈ 55.6 µM)
Cn1cc(NC(=O)c2cc(NC(=O)c3cc(-c4ccc5nsnc5c4)cn3C)cn2C)cc1C(=O)NCCN1CCOCC1	1 (≈ 1.62 µM)
Cn1cc(NC(=O)c2cc(NC(=O)c3cc(-c4sccc4C#N)cn3C)cn2C)cc1C(=O)NCCN1CCOCC1	2 (≈ 3.4 µM)
CSc1ccsc1-c1cc(C(=O)Nc2cc(C(=O)Nc3cc(C(=O)NCCN4CCOCC4)n(C)c3)n(C)c2)n(C)c1	8 (≈ 13.1 µM)
Cc1cccnc1-c1cc(C(=O)Nc2cc(C(=O)Nc3cc(C(=O)NCCN4CCOCC4)n(C)c3)n(C)c2)n(C)c1	8 (≈ 14 µM)
Cn1cc(NC(=O)c2cc(NC(=O)c3cc(NC(=O)c4cc5ccccc5cn4)cn3C)cn2C)cc1C(=O)NCCCN1CCOCC1	2 (≈ 3 µM)
Cn1cc(NC(=O)c2cc(NC(=O)c3cc(-c4cc(Cl)c(Cl)s4)cn3C)cn2C)cc1C(=O)NCCN1CCOCC1	8 (≈ 12.6 µM)
Cn1cc(NC(=O)c2cc(NC(=O)c3cc(-c4csnn4)cn3C)cn2C)cc1C(=O)NCCN1CCOCC1	4 (≈ 7.07 µM)
CN(C)CC(C)(C)CNC(=O)c1cc(NC(=O)c2cc(NC(=O)c3cc(NC(=O)c4cc5ccccc5cn4)cn3C)cn2C)cn1C	1 (≈ 1.53 µM)
CC(C)S(=O)(=O)c1csc(-c2cc(C(=O)Nc3cc(C(=O)Nc4cc(C(=O)NCCN5CCOCC5)n(C)c4)n(C)c3)n(C)c2)c1Cl	4 (≈ 5.68 µM)
Cn1cc(NC(=O)c2cc(NC(=O)c3cc(-c4cc5ccccc5[nH]4)cn3C)cn2C)cc1C(=O)NCCN1CCOCC1	8 (≈ 13.4 µM)
CN1CCN(NC(=O)c2cc(NC(=O)c3cc(NC(=O)c4cc(NC(=O)c5cc6ccccc6cn5)cn4C)cn3C)cn2C)CC1	16 (≈ 25.1 µM)
